Measured values taken from US8664209B2, “Daptomycin for multiple sclerosis” (priority 2009, dated 2014).
Read-outs that look alike come from different tables or passages of the source.

How the values were obtained:
Assay type in all cases: in vivo, human
[1] = test system: patients with progressive and relapsing forms of multiple sclerosis
Method: Seventeen patients with relapsing remitting (4 patients) and chronic progressive multiple sclerosis […] have received daptomycin therapy at 4 mg/kg IV for periods ranging from five to 21 days. This patient group included Patient A and Patient B from the above examples.
Four out of seventeen patients have received daptomycin for acute relapses, after not responding to, or wishing to be taken of, solumedrol therapy.
Thirteen patients with chronic progressive multiple sclerosis received daptomycin therapy for symptoms of multiple sclerosis that were progressing, or to improve present symptoms. […] In all chronic progressive patients who report responses to the drug, maintenance doses starting with once a week with or without the addition of intravenous corticosteroids are given. Doses of daptomycin 2 mg/kg are given to patients who report fatigue as a significant side effect.
Overall, in the same study, daptomycin was administered to a total of 30 patients. 14 responded to treatment (47%).
Daptomycin was administered as a daily IV infusion at 3 mg/kg, 4 mg/kg or 6 mg/kg as per standard guidelines for 5 to 21 days, then as a maintenance dose of 3 mg/kg, 4 mg/kg or 6 mg/kg once every one to four weeks. Patients were monitored by telephone calls. CPK levels were done as clinically indicated. Patients were selected on the basis of failure or intolerance on other treatments and continued disease activity.

[2] = test system: person with secondary progressive multiple sclerosis (SPMS); assay: Patient A case: daptomycin given for MRSA infection (Examples 1, 3); conditions: for muscle and nerve pain, muscle stiffness: patient-reported
From the text: The novel use of daptomycin in the treatment and/or prevention of multiple sclerosis in mammals, particularly human, is based on the recent observation of a patient (Patient A) with multiple sclerosis whose progressive neurological disability stabilized after treatment with daptomycin for skin infections caused by methicillin resistant Staphalococcus aureus. Previously, their neurological disability had progressed despite treatment with standard FDA approved therapies as well as investigational therapies, some of which they developed severe allergic reactions to. […] More detail about Patient A is provided in Example 3. Patient A is a person who has suffered from multiple sclerosis. Their disease started with left arm and leg weakness. During the early course of the disease, they experienced frequent relapses. Progressive relapsing continued, with increasing lower extremity weakness. The patient characterized their left arm as feeling like dead weight. Patient A developed diverticulitis in 2006. Their EDSS (Expanded Disability Status Scale) was 5.5 in February, 2007, i.e., patient was able to walk 100 meters without aid or rest; their EDSS was 6.0 by the end of the year, i.e., patient required intermittent or constant assistance with a cane, crutch or brace to walk 100 meters. Daptomycin therapy was initiated to treat a MRSA infection after Patient A had knee surgery. They received a daptomycin dose of 100 mg for four weeks. Three months later, they had re-treatment with 500 mg daily for about four weeks.

[3] = test system: person with multiple sclerosis with almost weekly relapses; assay: Patient B case: daptomycin for relapses (Example 2); conditions: for ambulation: acute relapse (nonambulatory)
From the text: This is described in more detail in Example 2. Patient B is a person who was first diagnosed with multiple sclerosis in 1981. The course of their illness was characterized through the years by increasingly frequent relapses and progressive disability. They had initially been treated with azathioprine and, subsequently with interferons, including Betaseron™ and Avonex®, and Copaxone®. As adjunct treatments, they received innumerable courses of intravenous methylprednisolone, as well as cyclophosphamide, since 2005. In addition, they have also received mycophenylate mofetil, plasma exchange monthly, intravenous immunoglobulin monthly, natalizumab, daclizumab and rituximab. None of these regimens adequately controlled their many relapses, which were characterized by worsening gait and appendicular ataxia, weakness in their limbs, vertigo and diplopia and severe migraine headaches. In late 2008 and 2009, they were hospitalized seven times for relapses. Since 2005, they had received more than 50 courses of steroid and/or cyclophosphamide treatments for relapses not requiring hospitalization. These treatments would induce partial and short lasting remissions. During 2009, they were having relapses on a weekly basis. During remissions, they were able to walk only with a walker. Daptomycin 4 mg/kg intravenously [hereinafter “IV”] was administered to patient B for five days for an acute relapse which made the patient nonambulatory. […] They did have an allergic reaction with chest tightness and blistering at the injection site that was determined to be caused by the tape securing their IV catheter. […] Daptomycin 4 mg/kg/IV was administered for five additional days with pretreatment with solumedrol in the total amount of 100 mg IV and diphenhydramine in the total amount of 50 mg IV with improvement. Daptomycin was then ordered 4 mg/kg/IV once a week. Three days after their first weekly dose, they began to feel more off balanced and their headache became more severe. Daptomycin orders were revised to 4 mg/kg IV once a week in co-administration with solumedrol 1 gram IV.

[4] = RPMS (relapsing progressive MS)
[5] = patient thirteen, SPMS, DD 4 yrs, EDSS pretx 4, 4 mg/kg/d × five days (relapse), status D (discontinued)
[6] = secondary progressive MS (SPMS)
[7] = Patient A, listed as daptomycin

CCCCCCCCCC(=O)N[C@@H](Cc1c[nH]c2ccccc12)C(=O)N[C@H](CC(N)=O)C(=O)N[C@@H](CC(=O)O)C(=O)N[C@@H]1C(=O)NCC(=O)N[C@@H](CCCN)C(=O)N[C@@H](CC(=O)O)C(=O)N[C@H](C)C(=O)N[C@@H](CC(=O)O)C(=O)NCC(=O)N[C@H](CO)C(=O)N[C@@H]([C@H](C)CC(=O)O)C(=O)N[C@@H](CC(=O)c2ccccc2N)C(=O)O[C@@H]1C [Daptomycin, N-decanoyl-L-trypotophyl-D-asparaginyl-L-aspartyl-L-threonylglycyl-L-ornithyl-L-aspartyl-D-alanyl-L-aspartylglycyl-D-seryl-threo-3-methyl-L-glutamyl-3-anthraniloyl-L-alanine ε1-lactone]
subgroup response [1, 4]: 0% | subgroup response (responders/treated) [1, 4]: 0/2 | patient-reported strength and sensation ([1]; four out of seventeen patients given daptomycin for acute relapses, 4 mg/kg IV): Three patients reported improvement in their strength and sensation | creatine phosphokinase level (CPK) ([1]; human, in vivo): 217 | hospitalizations ([1]; human, in vivo): Two patients were hospitalized for confusion and increased symptoms | most common side effect during the course of therapy ([1]; human, in vivo): fatigue | fatigue associated with therapy ([1]; human, in vivo, iv, 4 mg/kg): Three patients noted that daptomycin therapy was associated with significant fatigue | EDSS (last) ([1]; patient eight, SPMS, DD 12 yrs, EDSS pretx 7, 4 mg/kg × one dose, status D (discontinued)): 7 | EDSS (last) ([1]; patient eighteen, SPMS, DD 5 yrs, EDSS pretx 6, 4 mg/kg × 5 days, then 4 mg/kg q week, status D (discontinued)): 6 | EDSS (last) ([1]; patient eleven, SPMS, DD 24 yrs, EDSS pretx 6.5, 4 mg/kg/day × 14 days (relapse), status D (discontinued)): 6.5 | EDSS (last) ([1]; patient fifteen, SPMS, DD 25 yrs, EDSS pretx 6.5, 4 mg/kg/d × 5 days (two courses), 4 mg/kg/week, status A (active)): 6.5 | EDSS (last) ([1]; patient five, RRMS, DD 7 yrs, EDSS pretx 2.5, 4 mg/kg/day × 5 days, status D (discontinued)): 2.5 | EDSS (last) ([1]; patient four, RRMS, DD 15 yrs, EDSS pretx 2.5, 4 mg/kg/d × 14 days, then 4 mg/kg/q 1-2 wks, status D (discontinued)): 2 | EDSS (last) ([1]; patient fourteen, SPMS, DD 9 yrs, EDSS pretx 6, 4 mg/kg × 5 days, then 4 mg/kg q 2 wks, status A (active)): 6 | EDSS (last) ([1]; patient nine, SPMS, DD 13 yrs, EDSS pretx 6.5, 4 mg/kg/d × 5 days, 4 mg/kg q 2 wks, status A (active)): 6.5 | EDSS (last) ([1]; patient nineteen, SPMS, DD 21 yrs, EDSS pretx 6.5, 4 mg/kg × 21 days. D/Ced p 2½ wks, status D (discontinued)): 6.5 | EDSS (last) ([1]; patient one, TMS, DD 12 yrs, EDSS pretx 6, 4 mg/kg × 21 days, status D (discontinued)): 6 | EDSS (last) ([1]; patient seven, RRMS, DD 6 yrs, EDSS pretx 3.5, 4 mg/kg/d × 14 days, status D (discontinued)): 3.5 | EDSS (last) ([1]; patient seventeen, RRMS, DD 7 yrs, EDSS pretx 0, 4 mg/kg/d × 3 days, then 4 mg/kg/week, status A (active)): 1 | EDSS (last) ([1]; patient six, RPMS, DD 12 yrs, EDSS pretx 6, 4 mg/kg/d × 3 days, then 4 mg/kg/week, status D (discontinued)): 6 | EDSS (last) ([1]; patient sixteen, PPMS, DD 18 yrs, EDSS pretx 8.5, 4 mg/kg/d × 15 days, the 4 mg/kg/week, status D (discontinued)): 8.5 | EDSS (last) ([1]; patient ten, RRMS, DD 15 yrs, EDSS pretx 3, 4 mg/kg/d × 16 days, 4 mg/kg/wk × 4, then 4 mg/kg/q o wk, status A (active)): 3 | EDSS (last) [1, 5]: 3.5 | Outcome [1, 5]: No benefit | EDSS (last) ([1]; patient thirty, SPMS, DD 17 yrs, EDSS pretx 6, 4 mg/kg/d × 10 days, status D (discontinued)): 6 | EDSS (last) ([1]; patient three, RPMS, DD 18 yrs, EDSS pretx 6.5, 4 mg/kg/d × 5 days, status D (discontinued)): 6.5 | EDSS (last) ([1]; patient twelve, SPMS, DD 9 yrs, EDSS pretx 4, 4 mg/kg × 21 days, status D (discontinued)): 4 | EDSS (last) ([1]; patient twenty, SPMS, DD 16 yrs, EDSS pretx 6.5, 4 mg/kg/day × 21 days, then 4 mg/kg q 2 weeks, status A (active)): 6.5 | EDSS (last) ([1]; patient twenty-eight, SPMS, DD 15 yrs, EDSS pretx 6.5, 4 mg/kg/d × 10 days, then 4 mg/kg/wk, status A (active)): 6 | EDSS (last) ([1]; patient twenty-five, SPMS, DD 6 yrs, EDSS pretx 6.5, 4 mg/kg/d × 5 days, status D (discontinued)): 7 | EDSS (last) ([1]; patient twenty-four, SPMS, DD 15 yrs, EDSS pretx 6.5, 4 mg/kg/d × 10 days, then 4 mg/kg/wk, status A (active)): 6.5 | EDSS (last) ([1]; patient twenty-nine, SPMS, DD 16 yrs, EDSS pretx 6.5, 4 mg/kg × 21 days, then 4 mg/kg q 2 wks, status A (active)): 6.5 | EDSS (last) ([1]; patient twenty-one, SPMS, DD 11 yrs, EDSS pretx 5.5, 4 mg/kg/day × 21 days, 4 mg/kg q wk. 6 mg/kg/d times 14 days, status D (discontinued)): 6 | EDSS (last) ([1]; patient twenty-seven, SPMS, DD 10 yrs, EDSS pretx 6, 4 mg/kg/d × 5 days, 2 mg/kg q 2 wks, status A (active)): 6 | EDSS (last) ([1]; patient twenty-six, TMS, DD 23 yrs, EDSS pretx 4, 4 mg/kg/d × 14 days, status D (discontinued)): 4 | EDSS (last) ([1]; patient twenty-three, RRMS, DD 11 yrs, EDSS pretx 2, 4 mg/kg × 5 days (relapse). Repeated 3 mos later (relapse), status D (discontinued)): 2.5 | EDSS (last) ([1]; patient twenty-two, SPMS, DD 6 yrs, EDSS pretx 6.5, 4 mg/k/d × 5 days, status D (discontinued)): 6.5 | EDSS (last) ([1]; patient two, SPMS, DD 11 yrs, EDSS pretx 6, 500 mg IV × 5 weeks, 4 mg/kg × 4 wks, 4 mg/kg q wk, status A (active)): 2.5 | patients showing clinically significant improvement in symptoms of multiple sclerosis ([1]; patients with progressive and relapsing MS unresponsive to multiple therapies): 47% | subgroup response ([1]; primary progressive MS (PPMS)): 0% | subgroup response (responders/treated) ([1]; primary progressive MS (PPMS)): 0/1 | subgroup response ([1]; relapsing remitting MS (RRMS)): 50% | subgroup response (responders/treated) ([1]; relapsing remitting MS (RRMS)): 3/6 | subgroup response [1, 6]: 47% | subgroup response (responders/treated) [1, 6]: 9/19 | patient-reported strength ([1]; thirteen patients with chronic progressive multiple sclerosis, 4 mg/kg IV): Nine patients reported better strength | patients who responded to treatment ([1]; total of 30 patients): 47% | patients who responded to treatment (number) ([1]; total of 30 patients): 14 | subgroup response ([1]; transitional MS (TMS)): 100% | subgroup response (responders/treated) ([1]; transitional MS (TMS)): 2/2 | left upper extremity strength, sensation, numbness ([2]; Patient A): numbness in their left arm was improved | walking ([2]; Patient A, after the first daptomycin treatment (100 mg for four weeks)): slight improvement in walking | gait / need of cane ([2]; Patient A, after the second treatment (500 mg daily about four weeks)): did not require their cane, but could walk unassisted | progressive neurological disability ([2]; Patient A, after treatment with daptomycin for MRSA skin infections): stabilized | walking ([2]; Patient A, during and after treatment): able to walk extended distances without their cane | EDSS (Expanded Disability Status Scale) ([2]; Patient A, four weeks after discontinuing daptomycin, EDSS was 6.0 before, 100 mg for four weeks, re-treatment 500 mg daily about four weeks): 2.5 | muscle and nerve pain, muscle stiffness ([2]; Patient A): improvement in muscle pain and stiffness | muscle and nerve pain, muscle stiffness [2, 7]: significant decrease in their muscle and nerve pain as well as muscle stiffness | left upper extremity strength, sensation, numbness [2, 7]: increase in strength and sensation of their left upper extremity | functional improvement ([2]; person with SPMS poorly responsive to other therapies): dramatic and sustained functional improvement | ambulation ([3]; 4 mg/kg IV for five days, third day): able to walk with their walker | ambulation ([3]; 4 mg/kg IV, after five days): able to take a few steps without their walker | duration of stability after initial course ([3]; after initial 4 mg/kg IV for five days, then recurrence of ataxia and increased headaches, less severe): stable for approximately one week | response of relapses ([3]; consecutive courses of daptomycin for three to five days): respond very rapidly | frequency of relapses ([3]; daptomycin at regular intervals (4 mg/kg IV once a week with solumedrol 1 gram IV)): marked decrease in the frequency of their relapses | frequency of relapses and neurological disability ([3]; intravenous daptomycin 4 mg/kg): stabilized both in terms of the frequency of their relapses and neurological disability
